Measured values taken from the kinase profiling compilation of Christmann-Franck et al. (2016).

Columns and labels:
Test in all cases: KINOMEscan competition binding
Conditions in all cases: compound 10.0 µM
MINK1 (human) = MINK1 (human) (UniProt Q8N4C8)
CDK11B (human) = CDK11B (human) (UniProt P21127)
DYRK1B (human) = DYRK1B (human) (UniProt Q9Y463)
PRKD2 (human) = PRKD2 (human) (UniProt Q9BZL6)
CAMKK2 (human) = CAMKK2 (human) (UniProt Q96RR4)
WEE2 (human) = WEE2 (human) (UniProt P0C1S8)
EPHA6 (human) = EPHA6 (human) (UniProt Q9UF33)
IRAK4 (human) = IRAK4 (human) (UniProt Q9NWZ3)
MAP3K6 (human) = MAP3K6 (human) (UniProt O95382)
ROCK2 (human) = ROCK2 (human) (UniProt O75116)
MAPK9 (human) = MAPK9 (human) (UniProt P45984)
MAP2K5 (human) = MAP2K5 (human) (UniProt Q13163)
PIM3 (human) = PIM3 (human) (UniProt Q86V86)
ERBB2 (human) = ERBB2 (human) (UniProt P04626)
MAP3K12 (human) = MAP3K12 (human) (UniProt Q12852)
PI4KB (human) = PI4KB (human) (UniProt Q9UBF8)
FGFR3 (human) = FGFR3 (human) (UniProt P22607)
TESK1 (human) = TESK1 (human) (UniProt Q15569)
EPHB2 (human) = EPHB2 (human) (UniProt P29323)
INSR (human) = INSR (human) (UniProt P06213)
DAPK3 (human) = DAPK3 (human) (UniProt O43293)
PRKAA1 (human) = PRKAA1 (human) (UniProt Q13131)
MAP2K1 (human) = MAP2K1 (human) (UniProt Q02750)
MYLK4 (human) = MYLK4 (human) (UniProt Q86YV6)
CDK19 (human) = CDK19 (human) (UniProt Q9BWU1)
CAMKK1 (human) = CAMKK1 (human) (UniProt Q8N5S9)
CDK13 (human) = CDK13 (human) (UniProt Q14004)
[1] = system: PIK3CA (human), P42336 [M1043I]
STK33 (human) = STK33 (human) (UniProt Q9BYT3)
SLK (human) = SLK (human) (UniProt Q9H2G2)
MET (human) = MET (human) (UniProt P08581)
DCLK1 (human) = DCLK1 (human) (UniProt O15075)
MARK2 (human) = MARK2 (human) (UniProt Q7KZI7)
CSNK2A2 (human) = CSNK2A2 (human) (UniProt P19784)
MAP3K7 (human) = MAP3K7 (human) (UniProt O43318)
AURKB (human) = AURKB (human) (UniProt Q96GD4)
PKMYT1 (human) = PKMYT1 (human) (UniProt Q99640)
PAK6 (human) = PAK6 (human) (UniProt Q9NQU5)
LIMK1 (human) = LIMK1 (human) (UniProt P53667)
[2] = molecular target: JAK3 JH1 catalytic (human) (UniProt P52333)

Sequence of LIMK1 (human) (P53667 whole entry, looked up): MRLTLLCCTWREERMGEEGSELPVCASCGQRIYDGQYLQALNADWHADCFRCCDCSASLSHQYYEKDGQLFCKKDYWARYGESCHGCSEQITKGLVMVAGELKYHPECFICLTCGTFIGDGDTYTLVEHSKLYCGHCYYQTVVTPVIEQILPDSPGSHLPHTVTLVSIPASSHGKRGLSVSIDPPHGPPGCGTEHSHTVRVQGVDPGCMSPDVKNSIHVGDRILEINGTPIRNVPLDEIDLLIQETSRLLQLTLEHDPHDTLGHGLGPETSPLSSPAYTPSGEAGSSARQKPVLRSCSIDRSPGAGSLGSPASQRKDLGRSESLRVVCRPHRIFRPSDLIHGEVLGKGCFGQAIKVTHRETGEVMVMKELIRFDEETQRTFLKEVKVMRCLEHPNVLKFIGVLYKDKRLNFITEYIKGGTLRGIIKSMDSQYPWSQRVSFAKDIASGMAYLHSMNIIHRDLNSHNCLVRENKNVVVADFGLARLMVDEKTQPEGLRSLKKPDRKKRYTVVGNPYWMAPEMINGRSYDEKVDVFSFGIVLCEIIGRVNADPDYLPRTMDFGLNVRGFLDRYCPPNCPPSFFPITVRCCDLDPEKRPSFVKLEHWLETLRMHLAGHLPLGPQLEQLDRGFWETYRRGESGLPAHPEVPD
Sequence of MARK2 (human) (Q7KZI7 whole entry, looked up): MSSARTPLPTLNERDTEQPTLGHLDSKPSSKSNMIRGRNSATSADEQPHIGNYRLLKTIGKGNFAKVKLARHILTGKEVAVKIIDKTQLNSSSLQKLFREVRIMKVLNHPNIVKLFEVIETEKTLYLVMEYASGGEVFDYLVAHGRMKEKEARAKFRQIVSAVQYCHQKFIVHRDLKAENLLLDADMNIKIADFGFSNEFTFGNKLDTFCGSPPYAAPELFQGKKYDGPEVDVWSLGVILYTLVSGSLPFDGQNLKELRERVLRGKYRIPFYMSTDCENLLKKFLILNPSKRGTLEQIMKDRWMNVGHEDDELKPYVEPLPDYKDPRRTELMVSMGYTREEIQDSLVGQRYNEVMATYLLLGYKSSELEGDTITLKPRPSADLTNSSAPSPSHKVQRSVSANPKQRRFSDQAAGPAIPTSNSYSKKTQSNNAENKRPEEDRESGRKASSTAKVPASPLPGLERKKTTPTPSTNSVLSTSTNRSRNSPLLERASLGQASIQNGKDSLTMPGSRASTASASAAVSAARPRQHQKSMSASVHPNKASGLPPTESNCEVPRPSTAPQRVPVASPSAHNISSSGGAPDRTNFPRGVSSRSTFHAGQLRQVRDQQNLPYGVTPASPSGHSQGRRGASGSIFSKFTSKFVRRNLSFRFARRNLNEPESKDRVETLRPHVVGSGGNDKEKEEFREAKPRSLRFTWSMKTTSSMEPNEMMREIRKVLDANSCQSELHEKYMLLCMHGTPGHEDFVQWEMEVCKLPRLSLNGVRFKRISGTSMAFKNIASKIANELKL
Sequence of PRKD2 (human) (Q9BZL6 whole entry, looked up): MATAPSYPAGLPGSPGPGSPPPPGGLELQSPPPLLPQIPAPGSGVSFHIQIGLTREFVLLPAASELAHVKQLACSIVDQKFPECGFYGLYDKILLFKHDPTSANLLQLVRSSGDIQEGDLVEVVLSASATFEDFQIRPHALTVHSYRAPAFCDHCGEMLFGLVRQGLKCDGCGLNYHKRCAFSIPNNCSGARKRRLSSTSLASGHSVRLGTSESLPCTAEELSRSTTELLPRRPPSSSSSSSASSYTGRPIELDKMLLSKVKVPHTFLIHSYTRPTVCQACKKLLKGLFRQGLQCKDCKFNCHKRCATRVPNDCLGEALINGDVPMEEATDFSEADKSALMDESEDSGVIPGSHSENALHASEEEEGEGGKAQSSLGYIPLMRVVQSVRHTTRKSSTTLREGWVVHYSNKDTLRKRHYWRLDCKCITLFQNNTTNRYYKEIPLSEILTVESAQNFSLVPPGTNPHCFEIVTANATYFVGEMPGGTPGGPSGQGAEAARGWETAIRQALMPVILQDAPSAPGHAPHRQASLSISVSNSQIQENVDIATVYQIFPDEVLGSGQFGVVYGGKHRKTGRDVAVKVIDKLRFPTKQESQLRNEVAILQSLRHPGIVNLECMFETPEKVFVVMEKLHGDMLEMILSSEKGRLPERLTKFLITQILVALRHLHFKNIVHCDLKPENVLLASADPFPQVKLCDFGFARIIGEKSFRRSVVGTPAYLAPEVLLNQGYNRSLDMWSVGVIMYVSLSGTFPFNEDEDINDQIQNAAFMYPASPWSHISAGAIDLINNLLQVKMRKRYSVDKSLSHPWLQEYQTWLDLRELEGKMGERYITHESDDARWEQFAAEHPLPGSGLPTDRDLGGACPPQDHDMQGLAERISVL
Sequence of CDK19 (human) (Q9BWU1 whole entry, looked up): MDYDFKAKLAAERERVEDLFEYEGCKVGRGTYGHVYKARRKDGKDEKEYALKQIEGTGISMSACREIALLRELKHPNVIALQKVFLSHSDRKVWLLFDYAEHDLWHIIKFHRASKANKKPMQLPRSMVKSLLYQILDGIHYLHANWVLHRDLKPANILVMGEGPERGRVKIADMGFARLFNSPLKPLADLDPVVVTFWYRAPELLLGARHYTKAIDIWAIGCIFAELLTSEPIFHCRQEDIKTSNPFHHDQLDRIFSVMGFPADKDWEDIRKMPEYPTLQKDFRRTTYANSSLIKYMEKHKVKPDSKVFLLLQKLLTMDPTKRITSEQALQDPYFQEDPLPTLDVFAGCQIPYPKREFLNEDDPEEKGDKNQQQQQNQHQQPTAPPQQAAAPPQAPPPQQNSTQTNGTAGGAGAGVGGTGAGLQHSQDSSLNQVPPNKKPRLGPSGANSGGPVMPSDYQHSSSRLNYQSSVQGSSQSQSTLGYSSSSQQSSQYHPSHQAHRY
Sequence of PRKAA1 (human) (Q13131 whole entry, looked up): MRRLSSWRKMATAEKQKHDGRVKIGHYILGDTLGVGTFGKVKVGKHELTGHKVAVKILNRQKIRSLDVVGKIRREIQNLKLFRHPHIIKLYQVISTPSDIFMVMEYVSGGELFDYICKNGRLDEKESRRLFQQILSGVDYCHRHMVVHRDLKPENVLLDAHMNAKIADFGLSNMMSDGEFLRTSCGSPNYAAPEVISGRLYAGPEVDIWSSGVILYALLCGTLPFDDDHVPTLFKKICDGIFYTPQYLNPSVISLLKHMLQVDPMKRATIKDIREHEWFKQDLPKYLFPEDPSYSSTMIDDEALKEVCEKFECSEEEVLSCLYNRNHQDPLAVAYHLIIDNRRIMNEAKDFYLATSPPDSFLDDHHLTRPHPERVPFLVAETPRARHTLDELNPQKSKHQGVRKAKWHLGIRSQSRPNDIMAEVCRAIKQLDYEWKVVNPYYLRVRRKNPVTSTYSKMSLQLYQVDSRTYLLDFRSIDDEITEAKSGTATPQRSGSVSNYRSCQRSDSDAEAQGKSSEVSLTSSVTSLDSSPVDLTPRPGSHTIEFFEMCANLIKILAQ
Sequence of PAK6 (human) (Q9NQU5 whole entry, looked up): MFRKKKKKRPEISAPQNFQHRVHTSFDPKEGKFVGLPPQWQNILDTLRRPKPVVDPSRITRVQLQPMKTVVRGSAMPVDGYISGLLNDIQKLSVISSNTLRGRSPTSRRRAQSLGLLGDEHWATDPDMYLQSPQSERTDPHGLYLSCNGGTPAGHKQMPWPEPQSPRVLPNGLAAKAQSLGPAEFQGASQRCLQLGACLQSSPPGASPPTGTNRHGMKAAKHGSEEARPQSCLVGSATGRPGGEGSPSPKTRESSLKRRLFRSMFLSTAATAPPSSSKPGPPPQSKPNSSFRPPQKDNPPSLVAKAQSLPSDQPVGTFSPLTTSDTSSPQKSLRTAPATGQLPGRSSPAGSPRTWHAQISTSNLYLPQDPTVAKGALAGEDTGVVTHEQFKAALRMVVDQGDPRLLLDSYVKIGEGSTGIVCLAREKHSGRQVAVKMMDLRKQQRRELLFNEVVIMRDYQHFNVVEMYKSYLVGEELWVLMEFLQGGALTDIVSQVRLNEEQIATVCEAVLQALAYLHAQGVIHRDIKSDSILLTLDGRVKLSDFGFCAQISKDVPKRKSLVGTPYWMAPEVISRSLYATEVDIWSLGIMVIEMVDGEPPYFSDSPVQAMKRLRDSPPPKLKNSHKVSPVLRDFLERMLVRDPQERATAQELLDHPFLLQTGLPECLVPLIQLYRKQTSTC
Sequence of MAPK9 (human) (P45984 whole entry, looked up): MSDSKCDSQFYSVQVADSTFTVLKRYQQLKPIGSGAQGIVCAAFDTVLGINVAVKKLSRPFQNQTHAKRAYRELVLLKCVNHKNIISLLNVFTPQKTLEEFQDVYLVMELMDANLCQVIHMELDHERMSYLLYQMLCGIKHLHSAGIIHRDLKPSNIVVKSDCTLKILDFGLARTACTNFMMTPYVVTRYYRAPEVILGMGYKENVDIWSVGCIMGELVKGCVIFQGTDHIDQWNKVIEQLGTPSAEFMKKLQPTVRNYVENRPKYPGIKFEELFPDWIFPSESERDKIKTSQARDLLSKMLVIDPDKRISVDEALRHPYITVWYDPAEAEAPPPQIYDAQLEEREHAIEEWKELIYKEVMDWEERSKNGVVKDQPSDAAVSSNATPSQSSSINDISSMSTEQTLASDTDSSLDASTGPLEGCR
Sequence of MAP2K1 (human) (Q02750 whole entry, looked up): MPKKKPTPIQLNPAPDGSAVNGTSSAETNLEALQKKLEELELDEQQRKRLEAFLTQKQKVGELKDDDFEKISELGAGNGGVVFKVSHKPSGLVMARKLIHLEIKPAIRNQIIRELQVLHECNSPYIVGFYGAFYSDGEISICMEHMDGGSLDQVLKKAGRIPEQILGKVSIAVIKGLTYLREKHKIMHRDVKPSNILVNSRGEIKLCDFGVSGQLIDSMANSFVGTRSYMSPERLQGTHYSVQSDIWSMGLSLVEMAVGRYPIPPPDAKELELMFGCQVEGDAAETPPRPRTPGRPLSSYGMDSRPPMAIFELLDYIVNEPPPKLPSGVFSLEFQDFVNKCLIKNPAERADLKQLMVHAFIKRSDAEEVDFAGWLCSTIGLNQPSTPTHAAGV

Compound | kinase still bound, per cent of control (MINK1 (human)) [%] | kinase still bound, per cent of control (CDK11B (human)) [%] | kinase still bound, per cent of control (DYRK1B (human)) [%] | kinase still bound, per cent of control (PRKD2 (human)) [%] | kinase still bound, per cent of control (CAMKK2 (human)) [%] | kinase still bound, per cent of control (WEE2 (human)) [%] | kinase still bound, per cent of control (EPHA6 (human)) [%] | kinase still bound, per cent of control (IRAK4 (human)) [%] | kinase still bound, per cent of control (ROCK2 (human)) [%] | kinase still bound, per cent of control (MAPK9 (human)) [%] | kinase still bound, per cent of control (MAP2K5 (human)) [%] | kinase still bound, per cent of control (PIM3 (human)) [%] | kinase still bound, per cent of control (ERBB2 (human)) [%] | kinase still bound, per cent of control (MAP3K12 (human)) [%] | kinase still bound, per cent of control (PI4KB (human)) [%] | kinase still bound, per cent of control (FGFR3 (human)) [%] | kinase still bound, per cent of control (TESK1 (human)) [%] | kinase still bound, per cent of control (EPHB2 (human)) [%] | kinase still bound, per cent of control (INSR (human)) [%] | kinase still bound, per cent of control (DAPK3 (human)) [%] | further results
CC1=C(C(=O)Nc2cc3cn[nH]c3cc2F)C(c2ccc(C(F)(F)F)cc2)CC(=O)N1 (stereo unspecified) | 71 | 89 | 84 | 76 | 55 | 66 | 95 | 97 | 0.1 | 92 | 71 | 92 | 71 | 69 | 100 | 81 | 92 | 100 | 96 | 77 | kinase still bound, per cent of control (MAP3K6 (human)): 80%; kinase still bound, per cent of control (PRKAA1 (human)): 13%; kinase still bound, per cent of control (MAP2K1 (human)): 73%; kinase still bound, per cent of control (MYLK4 (human)): 88%; kinase still bound, per cent of control (CDK19 (human)): 80%; kinase still bound, per cent of control (CAMKK1 (human)): 72%; kinase still bound, per cent of control (CDK13 (human)): 24%; kinase still bound, per cent of control [1]: 93%; kinase still bound, per cent of control (STK33 (human)): 36%; kinase still bound, per cent of control (SLK (human)): 100%; kinase still bound, per cent of control (MET (human)): 51%; kinase still bound, per cent of control (DCLK1 (human)): 65%; kinase still bound, per cent of control (MARK2 (human)): 99%; kinase still bound, per cent of control (CSNK2A2 (human)): 86%; kinase still bound, per cent of control (MAP3K7 (human)): 78%; kinase still bound, per cent of control (AURKB (human)): 42%; kinase still bound, per cent of control (PKMYT1 (human)): 100%; kinase still bound, per cent of control (PAK6 (human)): 90%; kinase still bound, per cent of control (LIMK1 (human)): 100%
CCN(CCO)CCCOc1ccc2c(Nc3cc(CC(=O)Nc4cccc(F)c4)[nH]n3)ncnc2c1 | 25 | 6.5 | 86 | 80 | 100 | 100 | 69 | 76 | 66 | 46 | 0.4 | 100 | 13 | 58 | 100 | 92 | 100 | 93 | 75 | 82 | kinase still bound, per cent of control (PRKAA1 (human)): 64%; kinase still bound, per cent of control (MAP2K1 (human)): 32%; kinase still bound, per cent of control (CDK19 (human)): 100%; kinase still bound, per cent of control (CAMKK1 (human)): 71%; kinase still bound, per cent of control (CDK13 (human)): 66%; kinase still bound, per cent of control [1]: 100%; kinase still bound, per cent of control [2]: 87%; kinase still bound, per cent of control (STK33 (human)): 51%; kinase still bound, per cent of control (SLK (human)): 64%; kinase still bound, per cent of control (MET (human)): 46%; kinase still bound, per cent of control (DCLK1 (human)): 51%; kinase still bound, per cent of control (MARK2 (human)): 80%; kinase still bound, per cent of control (CSNK2A2 (human)): 86%; kinase still bound, per cent of control (MAP3K7 (human)): 16%; kinase still bound, per cent of control (AURKB (human)): 0.2%; kinase still bound, per cent of control (PKMYT1 (human)): 84%; kinase still bound, per cent of control (PAK6 (human)): 98%; kinase still bound, per cent of control (LIMK1 (human)): 100%
COc1cc2c(Nc3ccc(NC(=O)c4ccccc4)cc3)ncnc2cc1OCCCN1CCOCC1 | 33 | 16 | 96 | 100 | 81 | 100 | 85 | 51 | 34 | 27 | 0.3 | 100 | 0 | 35 | 100 | 67 | 59 | 100 | 77 | 100 | kinase still bound, per cent of control (MAP3K6 (human)): 100%; kinase still bound, per cent of control (PRKAA1 (human)): 62%; kinase still bound, per cent of control (MAP2K1 (human)): 0.1%; kinase still bound, per cent of control (MYLK4 (human)): 100%; kinase still bound, per cent of control (CDK19 (human)): 100%; kinase still bound, per cent of control (CAMKK1 (human)): 76%; kinase still bound, per cent of control (CDK13 (human)): 100%; kinase still bound, per cent of control [1]: 99%; kinase still bound, per cent of control [2]: 62%; kinase still bound, per cent of control (STK33 (human)): 67%; kinase still bound, per cent of control (SLK (human)): 0.95%; kinase still bound, per cent of control (DCLK1 (human)): 73%; kinase still bound, per cent of control (MARK2 (human)): 81%; kinase still bound, per cent of control (CSNK2A2 (human)): 100%; kinase still bound, per cent of control (MAP3K7 (human)): 49%; kinase still bound, per cent of control (AURKB (human)): 0.15%; kinase still bound, per cent of control (PKMYT1 (human)): 89%; kinase still bound, per cent of control (PAK6 (human)): 95%; kinase still bound, per cent of control (LIMK1 (human)): 100%
